Data published in patent publication US8003649B2 (AstraZeneca AB, priority 2007, dated 2011).

Target: T1, Androgen Receptor (AR) (Homo sapiens, UniProt P10275, T878A)
T1 construct: cell based immuno-fluorescence assay using the LNCaP prostate epithelial cell line; endogenous in cells; host or cells: LNCaP clone FGC (ATCC CRL-1740)
T1 sequence (P10275 1-920 T878A): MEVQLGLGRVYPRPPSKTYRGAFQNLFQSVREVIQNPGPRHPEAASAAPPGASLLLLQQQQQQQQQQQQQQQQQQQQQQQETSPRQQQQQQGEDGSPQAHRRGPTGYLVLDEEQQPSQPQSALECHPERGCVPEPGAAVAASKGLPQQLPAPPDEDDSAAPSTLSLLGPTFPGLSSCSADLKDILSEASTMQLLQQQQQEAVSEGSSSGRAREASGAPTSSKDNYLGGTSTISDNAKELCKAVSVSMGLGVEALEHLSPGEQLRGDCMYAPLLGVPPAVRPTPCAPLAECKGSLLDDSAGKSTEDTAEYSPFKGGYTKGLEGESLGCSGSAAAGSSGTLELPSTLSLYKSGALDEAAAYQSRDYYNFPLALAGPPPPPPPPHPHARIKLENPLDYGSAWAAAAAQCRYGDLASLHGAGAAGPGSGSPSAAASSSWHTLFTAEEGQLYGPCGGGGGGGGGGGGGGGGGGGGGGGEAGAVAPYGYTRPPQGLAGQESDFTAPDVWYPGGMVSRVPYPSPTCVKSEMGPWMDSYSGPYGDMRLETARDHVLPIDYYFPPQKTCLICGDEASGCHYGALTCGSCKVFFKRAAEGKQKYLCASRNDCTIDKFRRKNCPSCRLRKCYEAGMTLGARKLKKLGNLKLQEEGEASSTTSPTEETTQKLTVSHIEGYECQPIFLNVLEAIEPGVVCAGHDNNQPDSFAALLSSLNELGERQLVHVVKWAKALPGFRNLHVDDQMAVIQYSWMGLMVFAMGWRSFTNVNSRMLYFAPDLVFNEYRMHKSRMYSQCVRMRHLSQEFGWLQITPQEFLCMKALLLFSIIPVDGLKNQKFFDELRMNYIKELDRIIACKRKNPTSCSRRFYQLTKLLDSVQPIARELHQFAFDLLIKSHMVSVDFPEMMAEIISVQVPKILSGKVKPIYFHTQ
Assay: LNCaP Androgen Receptor Down-regulation Cell Assay (immunofluorescence end point)
Assay type: cell-based
Conditions: LNCaP prostate carcinoma cells, compound incubation 20-22 hours, 50% reduction of the AR signal
Description: The ability of compounds to reduce Androgen Receptor (AR) numbers was assessed in a cell based immuno-fluorescence assay using the LNCaP prostate epithelial cell line.
a) LNCaP Androgen Receptor Down-regulation Cell Assay
A 5 ml volume of Growth Medium was added to each flask (as above except that 5% (v/v) charcoal stripped FBS (HyClone Code no. SH30068.03) was included instead of 10% (v/v) FBS). Cells were syringed at least twice using a sterile 18G×1.5″ (1.2×40 mm) broad gauge needle and cell density was measured using a haemocytometer.
Test data reported herein was generated using two different compounds preparation and dosing methods. In method (1) a 10 mM compound stock solution in 100% (v/v) DMSO was serially diluted in 4-fold steps in 100% (v/v) DMSO using a Thermo Scientific Matrix SerialMate. The diluted compounds were then further diluted 1 in 30 in assay media using a Thermo Scientific Matrix PlateMate and a 10 μl aliquot of this dilution was dosed to cells manually using a multi-channel pipette. In method (2) starting with a 10 mM compound stock solution, the Labcyte Echo 550 was used to generate a compound concentration response set diluted in 30 μl of assay media. The Echo 550 is a liquid handler that uses acoustic technology to perform direct microplate-to-microplate transfers of DMSO compound solutions. The system can be programmed to transfer volumes as low as […] in multiple increments between microplates and in so doing generates a serial dilution of compound which is then back-filled to normalise the DMSO concentration across the dilution range. A 10 μl volume of diluted compound is then dosed to cells using a Thermo Scientific Matrix PlateMate.
Plates were incubated overnight at 37° C., 5% CO2. Wells were then dosed with compound prepared by one of the 2 methods above and further incubated for 20-22 hours at 37° C., 5% CO2. […] This fixative solution was removed and cells were washed with 250 μl of PBS/0.05% (v/v) Tween 20 (PBST) using an automated plate washer. This process was then repeated twice more.
Immunostaining was performed at room temperature. Cells were permeabilised by the addition of 35 μl of PBS containing 0.5% Tween 20 and incubated for 1 hour at room temperature. Permeabilisation solution was removed and cells were washed with 250 μl of PBST using an automated plate washer. This process was then repeated twice more. 35 μl of Blocking Solution (PBST containing 3% (w/v) Marvel dried skimmed milk (Nestle)) was added to each well and plates were incubated at room temperature for a minimum of 1 hour. […] Then this primary antibody solution was removed from the wells followed by 3×100 μl PBST washes using a plate washer. […] Henceforth, wherever possible, plates were protected from light exposure. The plates were incubated for 1 hour and then the secondary antibody solution was removed from the wells followed by 3×100 ul PBST washes using a plate washer. Then 50 μl of PBST was added to each well and plates were covered with a black plate seal and stored at 4° C. before being read. Plates were read within six hours of completing the immunostaining.
The Green Fluorescent AR-associated signal in each well was measured using an Acumen Explorer HTS Reader (TTP Labtech Ltd., Cambridge). […] The instrument is a laser-scanning fluorescence microplate cytometer which samples the well at regular intervals and uses threshold algorithms to identify all fluorescent intensities above the solution background without the need to generate and analyse an image. These fluorescent objects can be quantified and provide a measure of the AR levels in cells. Fluorescence dose response data obtained with each compound was exported into a suitable software package (such as Origin) to perform curve fitting analysis. Down-regulation of AR levels was expressed as an IC50 value.

SMILES | IC50 [µM]
CS(=O)(=O)Oc1cccc(CN2CCN(c3ccc4nnc(C(F)(F)F)n4n3)CC2)c1 [Example 151, [3-[[4-[3-(trifluoromethyl)-[1,2,4]triazolo[4,3-b]pyridazin-6-yl]piperazin-1-yl]methyl]phenyl]methanesulfonate] | 3.1

Same assay, conditions: LNCaP prostate carcinoma cells, compound incubation 20-22 hours, 50% reduction of the AR signal; read-out: Androgen Receptor Down-regulation Assay (a) IC50/μM

SMILES | DC50 [µM]
Fc1cc(CN2CCN(c3ccc4nnc(C(F)(F)F)n4n3)CC2)cc(C(F)F)c1 [Example 783, 6-[4-[3-(difluoromethyl)-5-fluorobenzyl]piperazin-1-yl]-3-(trifluoromethyl)[1,2,4]triazolo[4,3-b]pyridazine] | 0.84
Fc1ccc(N2CCN(c3ccc4nnc(C(F)(F)F)n4n3)CC2)c(F)c1 [Example 29, 6-[4-(2,4-difluorophenyl)piperazin-1-yl]-3-(trifluoromethyl)-[1,2,4]triazolo[4,3-b]pyridazine] | 4.2
Fc1cccc(O[C@@H]2CCN(c3ccc4nnc(C(F)(F)F)n4n3)C2)c1 [Example 585] | 1.5
CC(C)OCC1CCN(c2ccc3nnc(C(F)(F)F)n3n2)CC1 [Example 298] | 5.7
COc1ccccc1OC1CCN(c2ccc3nnc(C(F)(F)F)n3n2)CC1 [Example 531] | 1.8
Cc1cccc(C)c1N1CCN(c2ccc3nnc(C(F)(F)F)n3n2)CC1 [Example 16, 6-[4-(2,6-dimethylphenyl)piperazin-1-yl]-3-(trifluoromethyl)-[1,2,4]triazolo[4,3-b]pyridazine] | 0.77
Fc1ccc(CN2CCCN(c3ccc4nnc(C(F)(F)F)n4n3)CC2)cc1 [Example 177, 6-[4-[(4-fluorophenyl)methyl]-1,4-diazepan-1-yl]-3-(trifluoromethyl)-[1,2,4]triazolo[4,3-b]pyridazine] | 0.77
CN(C)CCCOc1cccc(OC2CCN(c3ccc4nnc(C(F)(F)F)n4n3)CC2)c1 [Example 443] | 1.5
FC(F)(F)c1nnc2ccc(N3CCN(Cc4cccnc4Cl)CC3)nn12 [Example 369] | 8.7
FC(F)(F)c1nnc2ccc(N3C[C@H]4CC[C@@H](C3)N4Cc3cccnc3)nn12 [Example 553, 6-[(1R,5S)-8-(pyridin-3-ylmethyl)-3,8-diazabicyclo[3.2.1]oct-3-yl]-3-(trifluoromethyl)[1,2,4]triazolo[4,3-b]pyridazine] | 2.6
Cc1cc(CNC(=O)c2ccc(C3CCN(c4ccc5nnc(C(F)(F)F)n5n4)CC3)cc2)no1 [Example 640] | 0.92
FC(F)(F)c1nnc2ccc(N3CCC(c4cccc(OCc5cnco5)c4)CC3)nn12 [Example 680] | 0.6
FC(F)(Cl)c1nnc2ccc(N3CCN(CCc4ccccc4)CC3)nn12 [Example 349, 3-[chloro(difluoro)methyl]-6-[4-(2-phenylethyl)piperazin-1-yl][1,2,4]triazolo[4,3-b]pyridazine] | 1.7
FC(F)c1ccccc1CN1CCN(c2ccc3nnc(C(F)F)n3n2)CC1 [Example 824, 3-(difluoromethyl)-6-[4-[2-(difluoromethyl)benzyl]piperazin-1-yl][1,2,4]triazolo[4,3-b]pyridazine] | 1.9
FC(F)(Cl)c1nnc2ccc(N3CC4CN(Cc5ccccc5)CC4C3)nn12 (centres unmarked) [Example 354, 6-(5-benzylhexahydropyrrolo[3,4-c]pyrrol-2(1H)-yl)-3-[chloro(difluoro)methyl][1,2,4]triazolo[4,3-b]pyridazine] | 2.7
FC(F)(F)c1nnc2ccc(N3CCC(Cc4ccncc4)CC3)nn12 [Example 538] | 2.3

SMILES | DC50 [µM]
FC(F)(F)c1nnc2ccc(N3CCN(Cc4c[nH]c5ccc(Br)cc45)CC3)nn12 [Example 281] | 0.8
Fc1ccccc1CCN1CCN(c2ccc3nnc(C(F)(F)F)n3n2)CC1 [Example 229, 6-[4-[2-(2-fluorophenyl)ethyl]piperazin-1-yl]-3-(trifluoromethyl)[1,2,4]triazolo[4,3-b]pyridazine] | 1.9
C[C@H](c1ccc(F)cc1)N1CCN(c2ccc3nnc(C(F)(F)F)n3n2)CC1 [Example 308, 6-[4-[(1R)-1-(4-fluorophenyl)ethyl]piperazin-1-yl]-3-(trifluoromethyl)[1,2,4]triazolo[4,3-b]pyridazine] | 1.4
FC(F)(F)c1nnc2ccc(N3CCN(Cc4cccnc4)CC3)nn12 [Example 81, 6-[4-(pyridin-3-ylmethyl)piperazin-1-yl]-3-(trifluoromethyl)-[1,2,4]triazolo[4,3-b]pyridazine] | 7.2
O=C(NCCN1CCCC1)c1ccc(OC2CCN(c3ccc4nnc(C(F)(F)F)n4n3)CC2)cc1 [Example 413] | 1.9
FC(F)(F)c1nnc2ccc(N3CCC(COc4ccc(Cl)cc4)CC3)nn12 [Example 470] | 4.6
Cc1cc(CN2CC3CN(c4ccc5nnc(C(F)(F)F)n5n4)CC3C2)ccn1 (centres unmarked) [Example 785, 6-[5-[(2-methylpyridin-4-yl)methyl]hexahydropyrrolo[3,4-c]pyrrol-2(1H)-yl]-3-(trifluoromethyl)[1,2,4]triazolo[4,3-b]pyridazine] | 1.7
COc1ccc(CN2CCN(c3ccc4nnc(C(F)F)n4n3)CC2)cc1F [Example 261] | 7.9
FC(F)c1nnc2ccc(N3CCN(Cc4c[nH]c5cccc(Cl)c45)CC3)nn12 [Example 289] | 2.7
FC(F)(F)c1nnc2ccc(N3CCC(Oc4ccc(Cl)cn4)CC3)nn12 [Example 618] | > 4
FC(F)(F)c1nnc2ccc(N3CCC(Oc4ccc(OCc5ccon5)cc4)CC3)nn12 [Example 438] | 1.6
COc1ccc(CN2CCN(c3ccc4nnc(C(F)(F)F)n4n3)CC2)c(F)c1 [Example 385] | 2.1
FC(F)(F)c1nnc2ccc(N3CCC(Oc4ccc(Br)cn4)CC3)nn12 [Example 721] | 2.9
COc1nccc(-c2c(-c3ccc(F)cc3)ncn2C2CCN(c3ccc4nnc(C(F)(F)F)n4n3)CC2)n1 [Example 31, 6-[4-[4-(4-fluorophenyl)-5-(2-methoxypyrimidin-4-yl)imidazol-1-yl]piperidin-1-yl]-3-(trifluoromethyl)-[1,2,4]triazolo[4,3-b]pyridazine] | 2.1
N#Cc1ccccc1C1(O)CCN(c2ccc3nnc(C(F)(F)F)n3n2)CC1 [Example 317, 2-[4-hydroxy-1-[3-(trifluoromethyl)[1,2,4]triazolo[4,3-b]pyridazin-6-yl]piperidin-4-yl]benzonitrile] | 4.1
